Test results published in the NIST ThermoML archive (doi:10.1016/j.fluid.2019.112283).

What was measured:
[1] = 298.15 K; 101.33 kPa; Liquid; Vibrating tube method
[2] = excess molar enthalpy (molar enthalpy of mixing); xn = mol fraction of the nth substance listed; settings: 298.15 K, 101 kPa, Liquid, Flow calorimetry

CCCCN [1-butanamine]
Settings	mass density [kg/m3]
[1]	732.18

CCCCN [1-butanamine] + CC(=O)N(C)C
[2]
Settings	excess molar enthalpy [kcal/mol]
x2 = 0.0498	0.0115
x2 = 0.0992	0.0213
x2 = 0.1518	0.0294
x2 = 0.1985	0.0363
x2 = 0.2512	0.0394
x2 = 0.3004	0.0452
x2 = 0.3493	0.0483
x2 = 0.4015	0.0495
x2 = 0.4508	0.05
x2 = 0.5005	0.0497
x2 = 0.5509	0.048
x2 = 0.6005	0.0466
x2 = 0.7008	0.0382
x2 = 0.7995	0.0287
x2 = 0.8502	0.0225
x2 = 0.9002	0.0153
x2 = 0.9594	0.00645

CCCCN [1-butanamine] + CN(C)C=O
[2]
Settings	excess molar enthalpy [kcal/mol]
x2 = 0.051	0.0213
x2 = 0.1009	0.0397
x2 = 0.1496	0.054
x2 = 0.1703	0.059
x2 = 0.2005	0.0667
x2 = 0.2498	0.0765
x2 = 0.3007	0.0841
x2 = 0.3496	0.0891
x2 = 0.4008	0.0935
x2 = 0.4508	0.0939
x2 = 0.5008	0.0918
x2 = 0.5463	0.0894
x2 = 0.6008	0.0848
x2 = 0.6463	0.0779
x2 = 0.7011	0.0691
x2 = 0.7559	0.0586
x2 = 0.8005	0.0497
x2 = 0.8495	0.0378
x2 = 0.9003	0.0253
x2 = 0.9519	0.0131

CCCCCCN [1-hexanamine]
Settings	mass density [kg/m3]
[1]	760.16

CCCCCCN [1-hexanamine] + CC(=O)N(C)C
[2]
Settings	excess molar enthalpy [kcal/mol]
x2 = 0.0509	0.017
x2 = 0.1005	0.0337
x2 = 0.1507	0.0468
x2 = 0.1994	0.0583
x2 = 0.2488	0.0705
x2 = 0.3018	0.0808
x2 = 0.3484	0.0882
x2 = 0.398	0.0961
x2 = 0.4502	0.1
x2 = 0.5006	0.101
x2 = 0.5493	0.101
x2 = 0.6002	0.0994
x2 = 0.6492	0.0958
x2 = 0.7001	0.0896
x2 = 0.7491	0.0815
x2 = 0.7996	0.0707
x2 = 0.8513	0.0569
x2 = 0.9008	0.0409
x2 = 0.9503	0.0217

CCCCCCN [1-hexanamine] + CN(C)C=O
[2]
Settings	excess molar enthalpy [kcal/mol]
x2 = 0.0514	0.0282
x2 = 0.1007	0.0523
x2 = 0.1516	0.076
x2 = 0.2009	0.0942
x2 = 0.2522	0.11
x2 = 0.3006	0.127
x2 = 0.3519	0.14
x2 = 0.4007	0.148
x2 = 0.4518	0.155
x2 = 0.5003	0.158
x2 = 0.5505	0.158
x2 = 0.5982	0.155
x2 = 0.6507	0.147
x2 = 0.7002	0.136
x2 = 0.7503	0.122
x2 = 0.8005	0.105
x2 = 0.8506	0.0846
x2 = 0.8995	0.0588
x2 = 0.9502	0.0308

CC(=O)N(C)C [N,N-dimethylethanamide]
Settings	mass density [kg/m3]
[1]	936.14

CCCCNCCCC [dibutylamine]
Settings	mass density [kg/m3]
[1]	755.7

CCCCNCCCC [dibutylamine] + CC(=O)N(C)C
[2]
Settings	excess molar enthalpy [kcal/mol]
x2 = 0.0499	0.0359
x2 = 0.0976	0.066
x2 = 0.151	0.0968
x2 = 0.1969	0.12
x2 = 0.2472	0.141
x2 = 0.3002	0.161
x2 = 0.3526	0.175
x2 = 0.3983	0.185
x2 = 0.4472	0.193
x2 = 0.5007	0.199
x2 = 0.5507	0.199
x2 = 0.6007	0.197
x2 = 0.6477	0.192
x2 = 0.6968	0.181
x2 = 0.7481	0.167
x2 = 0.8004	0.148
x2 = 0.8512	0.121
x2 = 0.9019	0.0887
x2 = 0.9507	0.0485

CCCCNCCCC [dibutylamine] + CN(C)C=O
[2]
Settings	excess molar enthalpy [kcal/mol]
x2 = 0.0491	0.0449
x2 = 0.1014	0.0923
x2 = 0.1488	0.13
x2 = 0.2006	0.163
x2 = 0.2482	0.187
x2 = 0.3006	0.21
x2 = 0.351	0.228
x2 = 0.4021	0.247
x2 = 0.4497	0.259
x2 = 0.4982	0.266
x2 = 0.5505	0.267
x2 = 0.599	0.262
x2 = 0.65	0.253
x2 = 0.6997	0.239
x2 = 0.7506	0.22
x2 = 0.7994	0.195
x2 = 0.8503	0.16
x2 = 0.9	0.117
x2 = 0.9501	0.0645

CN(C)C=O [dimethylformamide]
Settings	mass density [kg/m3]
[1]	943.78

CCCNCCC [dipropylamine]
Settings	mass density [kg/m3]
[1]	733.37

CCCNCCC [dipropylamine] + CC(=O)N(C)C
[2]
Settings	excess molar enthalpy [kcal/mol]
x2 = 0.0597	0.0234
x2 = 0.0996	0.0397
x2 = 0.1496	0.0562
x2 = 0.2011	0.0717
x2 = 0.2497	0.0856
x2 = 0.3009	0.0954
x2 = 0.3462	0.104
x2 = 0.4062	0.114
x2 = 0.4491	0.118
x2 = 0.5035	0.123
x2 = 0.5497	0.124
x2 = 0.5972	0.122
x2 = 0.6495	0.118
x2 = 0.6975	0.113
x2 = 0.7478	0.104
x2 = 0.8009	0.092
x2 = 0.8504	0.076
x2 = 0.8989	0.0571
x2 = 0.9368	0.0373
x2 = 0.9507	0.0301

CCCNCCC [dipropylamine] + CN(C)C=O
[2]
Settings	excess molar enthalpy [kcal/mol]
x2 = 0.0358	0.021
x2 = 0.1002	0.0576
x2 = 0.1512	0.0839
x2 = 0.1984	0.107
x2 = 0.2504	0.126
x2 = 0.3016	0.142
x2 = 0.3483	0.157
x2 = 0.4005	0.166
x2 = 0.4495	0.176
x2 = 0.5005	0.179
x2 = 0.5505	0.18
x2 = 0.6012	0.178
x2 = 0.6587	0.169
x2 = 0.6997	0.161
x2 = 0.7518	0.147
x2 = 0.7983	0.13
x2 = 0.8485	0.105
x2 = 0.8991	0.076
x2 = 0.9504	0.0406
